The assay concerns the target T1, human PAD4 (Homo sapiens, UniProt Q9UM07).
T1 construct: human PAD4 (NM_012387), A2-P663, was PCR amplified; His-SUMO (N, cleaved yes); made in house; host or cells: E. coli BL21(DE3)
Put plainly: In vitro PAD4 BAEE biochemical assay. To be noted: BAEE substrate 3 mM, 5 nM PAD4, 2 mM calcium chloride; geometric mean of multiple experiments. A digest of the protocol: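 PAD4 5 nM, CaCl2 2 mM, BAEE 3 mM final; 50 mM MOPS pH 7.6, 50 mM NaCl, 0.05% Tween-20, 2 mM DTT. Cpd + enzyme 30 min 25 °C; substrate 2 h 25 °C; EDTA stop; OPA detection 1 h. IC50 4-parameter fit.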
T1 sequence (Q9UM07 2-663): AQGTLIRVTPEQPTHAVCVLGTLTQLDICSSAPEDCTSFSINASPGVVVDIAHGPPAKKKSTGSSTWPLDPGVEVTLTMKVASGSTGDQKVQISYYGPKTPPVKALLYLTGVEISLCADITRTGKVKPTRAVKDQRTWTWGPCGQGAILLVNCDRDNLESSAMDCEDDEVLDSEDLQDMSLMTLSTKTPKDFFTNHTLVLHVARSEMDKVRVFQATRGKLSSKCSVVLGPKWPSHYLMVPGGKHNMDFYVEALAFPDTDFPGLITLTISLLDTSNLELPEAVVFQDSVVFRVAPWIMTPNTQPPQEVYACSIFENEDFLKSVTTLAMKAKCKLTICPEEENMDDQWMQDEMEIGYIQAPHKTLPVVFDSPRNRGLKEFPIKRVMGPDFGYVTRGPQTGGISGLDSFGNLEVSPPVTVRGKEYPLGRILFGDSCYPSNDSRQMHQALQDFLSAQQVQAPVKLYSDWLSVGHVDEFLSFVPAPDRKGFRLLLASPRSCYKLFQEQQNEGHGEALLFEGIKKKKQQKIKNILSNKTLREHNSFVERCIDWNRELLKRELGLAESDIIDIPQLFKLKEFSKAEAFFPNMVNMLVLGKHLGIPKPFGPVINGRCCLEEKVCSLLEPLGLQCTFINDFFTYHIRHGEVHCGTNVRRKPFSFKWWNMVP
For the molecule `COc1cc(C(=O)N[C@H]2CNC[C@H](O)C2)cc2nc(-c3cc4ccc5nc4n3CCCCCCC(C)(C)C(=O)N[C@@H]5C)n(C)c12` [Example 530, ~{N}-[(3~{R},5~ {R})-5-hydroxy-3-piperidyl]-7-methoxy-1-methyl-2-[(11~{R})-8,8,11-trimethyl-9-oxo-1,10,19-triazatricyclo [10.5.2.0^{15,18}]nonadeca-12(19),13,15(18),16-tetraen-17-yl]benzimidazole-5-carboxamide], the half-maximal inhibitory concentration (IC50) (usually the concentration that inhibits the measured activity by half) worked out at 51 nM.

With `COc1cc(C(=O)N2CC[C@H]3CCN[C@H]3C2)cc2nc(-c3cc4ccc5nc4n3CCCCC[C@@H]3C[C@H]3C(=O)N[C@@H]5C)n(C)c12` [Example 531, (2~{R},5~{R},7~{R})-14-[5-[(3~{a}-{R},7~ {a}~{R})-1,2,3,3~ {a},4,5,7,7~{a}-octahydropyrrolo[2,3-c]pyridine-6-carbonyl]-7-methoxy-1-methyl-benzimidazol-2-yl]-2-methyl-3,13,19-triazatetracyclo[11.5.2.0^ {5,7}.0^{16,20}]icosa-1(19),14,16(20),17-tetraen-4-one], the IC50 is 36 nM.

On to `COc1cc(C(=O)N2CC[C@@H]3CCN[C@@H]3C2)cc2nc(-c3cc4ccc5nc4n3CCCCC[C@@H]3C[C@H]3C(=O)N[C@@H]5C)n(C)c12` [Example 532, (2~{R},5~{R},7~{R})-14-[5-[(3~{a}~{S}, 7~{a}~{S})-1,2,3,3~ {a},4,5,7,7~{a}-octahydropyrrolo[2,3-c]pyridine-6-carbonyl]-7-methoxy-1-methyl-benzimidazol-2-yl]-2-methyl-3,13,19-triazatetracyclo[11.5.2.0^ {5,7}.0^{16,20}]icosa-1 (19),14,16(20),17-tetraen-4-one], for which the IC50 was 239 nM.

Take `COc1cc(C(=O)N2CC[C@@H](CO)[C@@H](N)C2)cc2nc(-c3cc4ccc5nc4n3CCCCCCC(C)(C)C(=O)N[C@@H]5C)n(C)c12` [Example 533, (11~{R})-17-[5-[(3~ {R},4~{R})-3-amino-4-(hydroxymethyl)piperidine-1-carbonyl]-7-methoxy-1-methyl-benzimidazol-2-yl]-8,8,11-trimethyl-1,10,19-triazatricyclo [10.5.2.0^{15,18}]nonadeca-12(19),13,15(18),16-tetraen-9-one]: the IC50 was determined as 398 nM.

As for `COc1cc(C(=O)N2[C@H]3CC[C@@H]2[C@H](N)C3)cc2nc(-c3cc4ccc5nc4n3CC(F)(F)CCCCCC(=O)N[C@@H]5C)n(C)c12` [Example 534, (11~{R})-17-[5-[(1~ {R},2~{R},4~{S})-2-amino-7-azabicyclo[2.2.1]heptane-7-carbonyl]-7-methoxy-1-methyl-benzimidazol-2-yl]-3,3-difluoro-11-methyl-1,10,19-triazatricyclo[10.5.2.0^ {15,18}]nonadeca-12(19),13,15(18),16-tetraen-9-one], the IC50 came out at 56 nM.

Regarding `COc1cc(C(=O)N2C[C@@H]3C[C@@H]3[C@@H](N)C2)cc2nc(-c3cc4ccc5nc4n3CCCCCCC(C)(C)C(=O)N[C@@H]5C)n(C)c12` [Example 535, (11~{R})-17-[5-[(1~ {R},5~{R},6~{S})-5-amino-3-azabicyclo[4.1.0]heptane-3-carbonyl]-7-methoxy-1-methyl-benzimidazol-2-yl]-8,8,11-trimethyl-1,10,19-triazatricyclo[10.5.2.0^ {15,18}]nonadeca-12(19),13,15(18),16-tetraen-9-one], the IC50 turned out to be 384 nM.

Consider `COc1cc(C(=O)N2C[C@H](N)C[C@H](O)C2)cc2nc(-c3cc4ccc5nc4n3CCCCCCC(C)(C)C(=O)N[C@@H]5C)n(C)c12` [Example 536, (11~{R})-17-[5-[(3~{R},5~{S})-3-amino-5-hydroxy-piperidine-1-carbonyl]-7-methoxy-1-methyl-benzimidazol-2-yl]-8,8,11-trimethyl-1,10,19-triazatricyclo[10.5.2.0^ {15,18}]nonadeca-12(19), 13,15(18),16-tetraen-9-one], for which the IC50 is 137 nM.

On to `Cc1cc2c(cc1C(=O)N[C@H]1CNCC[C@@H]1F)nc(-c1cc3ccc4nc3n1CCCCCCC(C)(C)C(=O)N[C@@H]4C)n2C` [Example 537, ~{N}-[(3~{S},4~ {S})-4-fluoro-3-piperidyl]-1,6-dimethyl-2-[(11~{R})-8,8,11-trimethyl-9-oxo-1,10,19-triazatricyclo [10.5.2.0^{15,18}]nonadeca-12(19),13,15(18), 16-tetraen-17-yl]benzimidazole-5-carboxamide], for which the 50% inhibitory concentration (IC50) worked out at 87 nM.

For `C[C@H]1NC(=O)C(C)(C)CCCCCCn2c(-c3nc4cc(C(=O)N[C@H]5CNCC[C@@H]5F)c(F)c(F)c4n3C)cc3ccc1nc32` [Example 538, 6,7-difluoro-~{N}-[(3~ {S},4~{S})-4-fluoro-3-piperidyl]-1-methyl-2-[(11~{R})-8,8,11-trimethyl-9-oxo-1,10,19-triazatricyclo[10.5.2.0^ {15,18}]nonadeca-12(19),13,15(18),16-tetraen-17-yl]benzimidazole-5-carboxamide], the half-maximal inhibitory concentration (IC50) turned out to be 90 nM.

In the case of `C[C@H]1NC(=O)[C@H]2C[C@@H]2CCCCCn2c(-c3nc4cc(C(=O)N[C@H]5CNCC[C@@H]5F)c(F)cc4n3C3CC3)cc3ccc1nc32` [Example 539, 1-cyclopropyl-6-fluoro-~{N}-[(3~{S},4~{S})-4-fluoro-3-piperidyl]-2-[(2~{R},5~{S},7~ {S})-2-methyl-4-oxo-3,13,19-triazatetracyclo [11.5.2.0^{5,7}.0^{16,20}]icosa-1(19),14,16 (20),17-tetraen-14-yl]benzimidazole-5-carboxamide], the IC50 is 175 nM.

As for `C[C@H]1NC(=O)C(C)(C)OCCCCCn2c(-c3nc4cc(C(=O)N[C@H]5CNCC[C@@H]5F)c(F)cc4n3C3CC3)cc3ccc1nc32` [Example 540, 1-cyclopropyl-6-fluoro-~{N}-[(3~{S},4~{S})-4-fluoro-3-piperidyl]-2-[(11~{R})-8,8,11-trimethyl-9-oxo-7-oxa-1,10,19-triazatricyclo[10.5.2.0^ {15,18}]nonadeca-12(19),13,15(18),16-tetraen-17-yl] benzimidazole-5-carboxamide], the IC50 is 90 nM.

`C[C@H]1NC(=O)C(C)(C)CCCCCCn2c(-c3nc4cc(C(=O)N[C@H]5CNCC[C@@H]5F)c(Cl)cc4n3C)cc3ccc1nc32` [Example 541, 6-chloro-~{N}-[(3~ {S),4~{S})-4-fluoro-3-piperidyl]-1-methyl-2-[(11~{R})-8,8,11-trimethyl-9-oxo-1,10,19-triazatricyclo[10.5.2.0^ {15,18}]nonadeca-12(19), 13,15(18),16-tetraen-17-yl]benzimidazole-5-carboxamide]: the IC50 was determined as 123 nM.

As for `COc1cc(C(=O)N2C[C@@H]3C[C@@H]3[C@@H](N)C2)cc2nc(-c3cc4ccc5nc4n3CCCCCCC(C)(C)C(=O)N[C@@H]5C)n(C)c12` [Example 542, (11~{R})-17-[5-[(1~ {R},5~{R},6~{S})-5-amino-3-azabicyclo [4.1.0]heptane-3-carbonyl]-7-methoxy-1-methyl-benzimidazol-2-yl]-8,8,11-trimethyl-1,10,19-triazatricyclo [10.5.2.0^{15,18}]nonadeca-12(19),13,15(18), 16-tetraen-9-one], the IC50 was 479 nM.

The values above are taken from patent publication US11976083B2, “Inhibitors of peptidylarginine deiminases” (Gilead Sciences, Inc., priority 2020, dated 2024).
